Results from publication PMC6976569, “Structural basis of subtype-selective competitive antagonism for GluN2C/2D-containing NMDA receptors” (Nature Communications, 2020).

Assays:
Type in all cases: cell-based
[1] = biological target: T1, GluN1-4a/GluN2D Lys766Arg NMDARs (Rattus norvegicus, UniProt P35439+Q62645, K766R); experiment: TEVC electrophysiology on oocytes expressing GluN1-4a/GluN2D Lys766Arg
T1 construct: expressed in transfected cells; host or cells: Xenopus laevis oocytes injected with cRNA
T1 sequence (Q62645 28-1323 K766R, other chains not shown): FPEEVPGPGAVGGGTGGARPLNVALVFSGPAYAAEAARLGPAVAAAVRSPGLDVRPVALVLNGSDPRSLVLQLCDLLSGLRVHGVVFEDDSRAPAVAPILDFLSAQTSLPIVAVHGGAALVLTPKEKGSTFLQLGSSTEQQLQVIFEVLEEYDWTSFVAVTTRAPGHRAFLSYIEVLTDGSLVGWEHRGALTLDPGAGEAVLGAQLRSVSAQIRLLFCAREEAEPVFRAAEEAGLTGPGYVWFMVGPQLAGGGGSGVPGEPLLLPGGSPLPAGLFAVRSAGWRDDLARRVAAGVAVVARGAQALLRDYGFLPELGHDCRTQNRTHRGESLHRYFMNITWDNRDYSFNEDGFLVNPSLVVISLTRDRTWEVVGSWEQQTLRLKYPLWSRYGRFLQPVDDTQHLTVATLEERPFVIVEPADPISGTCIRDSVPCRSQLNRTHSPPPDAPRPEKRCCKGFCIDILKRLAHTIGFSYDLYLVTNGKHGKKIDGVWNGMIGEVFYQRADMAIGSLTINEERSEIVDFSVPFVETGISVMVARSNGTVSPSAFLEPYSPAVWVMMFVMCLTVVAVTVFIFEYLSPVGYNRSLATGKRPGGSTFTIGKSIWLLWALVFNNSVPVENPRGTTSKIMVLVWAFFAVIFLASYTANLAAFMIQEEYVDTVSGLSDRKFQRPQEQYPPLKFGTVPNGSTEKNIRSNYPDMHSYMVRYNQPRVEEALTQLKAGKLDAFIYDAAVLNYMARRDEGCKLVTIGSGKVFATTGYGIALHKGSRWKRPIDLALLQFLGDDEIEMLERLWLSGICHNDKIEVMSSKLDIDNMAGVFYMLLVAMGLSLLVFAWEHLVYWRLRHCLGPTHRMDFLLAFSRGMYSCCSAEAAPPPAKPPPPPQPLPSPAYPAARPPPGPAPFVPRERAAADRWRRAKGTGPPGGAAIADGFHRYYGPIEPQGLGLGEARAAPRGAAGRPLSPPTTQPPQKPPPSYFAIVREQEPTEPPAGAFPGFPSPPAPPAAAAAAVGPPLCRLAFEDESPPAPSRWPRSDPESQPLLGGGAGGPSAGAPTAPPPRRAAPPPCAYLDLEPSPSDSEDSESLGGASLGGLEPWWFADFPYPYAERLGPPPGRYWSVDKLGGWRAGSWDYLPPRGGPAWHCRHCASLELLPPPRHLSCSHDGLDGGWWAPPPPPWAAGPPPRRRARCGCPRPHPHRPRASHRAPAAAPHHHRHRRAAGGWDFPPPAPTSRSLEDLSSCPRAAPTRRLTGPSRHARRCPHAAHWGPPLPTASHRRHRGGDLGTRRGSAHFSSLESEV
Text: (§1) To test the validity of the structural observation for the critical involvement of the methionine/lysine residue combination (GluN2D-Met763/Lys766, and GluN2A-4m-Met738/Lys741) in preferential binding of UBP791 to GluN2D over GluN2A, we conducted site-directed mutagenesis and assessed inhibition potencies of the mutant channels by TEVC. Specifically, we converted the GluN2D residues to the equivalent ones in the GluN2A subunit and measured macroscopic currents of the GluN1-4a/GluN2D mutant NMDARs.
(§2) Plasmids (pSP or pCI_NEO) harboring rat GluN1 or GluN2 full-length subunits were linearized by restriction digestion and transcribed according to the manufacturer’s instructions (mMESSAGE mMachine SP6 or T7 kit, ThermoFisher Scientific). Recombinant rat GluN1-4a and GluN2 were expressed by co-injecting cRNA at a 1:2 (w/w) ratio into defolliculated X. laevis oocytes (amounts varied from 0.05–25 ng per oocyte). Two-electrode voltage-clamp recordings were performed 1–3 days after injection using agarose-tipped microelectrodes (0.4–1.2 MΩ) filled with 3 M KCl at a holding potential of −60 mV. The bath solution contained 5 mM HEPES, 100 mM NaCl, 0.3 mM BaCl2, 10 mM Tricine, at pH 7.4 (adjusted with KOH). […] For the statistical evaluation, we implemented pairwise F-tests to test variances, and then performed the Student t test with equal or unequal variances as determined previously, and accounted for multiple testing with the Bonferroni correction.

[2] = biological target: T2, GluN1-4a/GluN2D Met763Lys NMDARs (Rattus norvegicus, UniProt P35439+Q62645, M763K); experiment: TEVC electrophysiology on oocytes expressing GluN1-4a/GluN2D Met763Lys
T2 construct: expressed in transfected cells; host or cells: Xenopus laevis oocytes injected with cRNA
T2 sequence (Q62645 28-1323 M763K, other chains not shown): as the sequence (Q62645 28-1323 K766R, other chains not shown) above, with M736K, R739K counted along it
Text: as §1, §2

[3] = biological target: T3, GluN1-4a/GluN2D Met763Lys/Lys766Arg NMDARs (Rattus norvegicus, UniProt P35439+Q62645, K766R/M763K); experiment: TEVC electrophysiology on oocytes expressing GluN1-4a/GluN2D Met763Lys/Lys766Arg
T3 construct: expressed in transfected cells; host or cells: Xenopus laevis oocytes injected with cRNA
T3 sequence (Q62645 28-1323 M763K/K766R, other chains not shown): as the sequence (Q62645 28-1323 K766R, other chains not shown) above, with M736K counted along it
Text: as §1, §2

[4] = biological target: T4, GluN1-4a/GluN2D Met763Lys/Lys766Arg NMDARs (Rattus norvegicus, UniProt Q62645, K766R/M763K); experiment: as above; conditions: Ki mutant relative to Ki GluN2D (WT)
T4 construct: expressed in transfected cells; host or cells: Xenopus laevis oocytes injected with cRNA
T4 sequence (Q62645 28-1323 M763K/K766R, other chains not shown): as the sequence (Q62645 28-1323 K766R, other chains not shown) above, with M736K counted along it
Text: as §1, §2

GluN1-4a/GluN2C NMDARs = biological target: T5, GluN1-4a/GluN2C NMDARs (Rattus norvegicus, UniProt Q00961); experiment: TEVC electrophysiology on Xenopus laevis oocytes expressing GluN1-4a/GluN2C; conditions: Ki GluN2C relative to Ki GluN2D (WT)
T5 construct: expressed in transfected cells; host or cells: Xenopus laevis oocytes injected with cRNA
T5 sequence (Q00961 20-1237, other chains not shown): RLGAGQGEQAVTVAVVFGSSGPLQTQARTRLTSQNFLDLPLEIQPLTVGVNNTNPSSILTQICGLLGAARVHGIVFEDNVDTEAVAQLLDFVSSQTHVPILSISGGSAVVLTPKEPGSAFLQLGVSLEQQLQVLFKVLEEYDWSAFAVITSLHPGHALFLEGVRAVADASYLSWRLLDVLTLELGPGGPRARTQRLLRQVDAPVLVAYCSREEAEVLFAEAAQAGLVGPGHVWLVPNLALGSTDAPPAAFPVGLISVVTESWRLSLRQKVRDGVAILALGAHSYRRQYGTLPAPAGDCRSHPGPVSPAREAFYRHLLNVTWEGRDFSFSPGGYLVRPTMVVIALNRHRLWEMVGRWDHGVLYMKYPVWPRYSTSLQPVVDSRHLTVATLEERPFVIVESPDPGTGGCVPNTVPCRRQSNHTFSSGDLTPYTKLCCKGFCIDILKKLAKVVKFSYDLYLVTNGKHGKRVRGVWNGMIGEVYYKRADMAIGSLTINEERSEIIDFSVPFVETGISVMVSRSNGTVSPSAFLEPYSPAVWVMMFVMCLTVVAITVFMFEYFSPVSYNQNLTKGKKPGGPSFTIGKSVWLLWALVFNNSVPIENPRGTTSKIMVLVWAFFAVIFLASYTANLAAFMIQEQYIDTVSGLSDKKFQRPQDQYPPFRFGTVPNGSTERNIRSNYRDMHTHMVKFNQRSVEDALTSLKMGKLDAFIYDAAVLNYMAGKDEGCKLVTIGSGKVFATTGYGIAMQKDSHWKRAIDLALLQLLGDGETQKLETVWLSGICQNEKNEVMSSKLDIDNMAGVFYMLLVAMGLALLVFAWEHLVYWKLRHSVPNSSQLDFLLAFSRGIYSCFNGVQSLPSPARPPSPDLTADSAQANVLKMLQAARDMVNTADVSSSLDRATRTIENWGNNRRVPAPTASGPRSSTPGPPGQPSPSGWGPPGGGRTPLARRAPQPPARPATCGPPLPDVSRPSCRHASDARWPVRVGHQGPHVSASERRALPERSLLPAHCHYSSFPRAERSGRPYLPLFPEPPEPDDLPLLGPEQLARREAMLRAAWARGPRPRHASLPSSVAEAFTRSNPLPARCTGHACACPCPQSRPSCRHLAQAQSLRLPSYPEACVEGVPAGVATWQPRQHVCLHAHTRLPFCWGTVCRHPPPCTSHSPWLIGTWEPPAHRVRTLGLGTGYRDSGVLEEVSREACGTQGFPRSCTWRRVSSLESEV
Text: The chemical definition of UBP791 used in this study is a cis-racemic mixture of (2S,3R)- and (2R,3S)-isomers.
as §2

O=C(O)CCc1ccc2c(ccc3cc(C(=O)N4CCN[C@@H](C(=O)O)[C@H]4C(=O)O)ccc32)c1 (relative stereo) [UBP791, (2S*,3R*)-1-(7-(2-carboxyethyl)phenanthrene-2-carbonyl)piperazine-2,3-dicarboxylic acid]
IC50 [1]: 1450 ± 80 nM
Ki [1]: 170 ± 30 nM
IC50 [2]: 1900 ± 60 nM
Ki [2]: 410 ± 70 nM
IC50 [3]: 7240 ± 440 nM
Ki [3]: 1150 ± 50 nM
fold difference of Ki vs. 2D (WT) (2D-M763K/K766R) [4]: 13 fold

O=C(O)C=Cc1ccc2c(ccc3cc(C(=O)N4CCN[C@@H](C(=O)O)[C@H]4C(=O)O)ccc32)c1 (relative stereo) [UBP1700, (2S*,3R*)-1-(7-(2-carboxyvinyl)phenanthrene-2-carbonyl)piperazine-2,3-dicarboxylic acid]
fold difference of Ki vs. 2D (GluN2C) (GluN1-4a/GluN2C NMDARs): ~ 1.3 fold
